Values quoted from earlier work in patent publication US20130190388A1, “Methods and Compositions Related to DLK-1 and the P38 MAPK Pathway in Nerve Regeneration” (University of Utah Research Foundation, priority 2008, published 2013).

Key:
adult DRG neurons = details: inhibiting p38 signaling; reduced from about 65% without inhibitor
[1] = test system: Magellan (Phr-1) growth cone phenotype; details: Phr-1 (Magellan) mutant neurons

Compound	regeneration in vitro by adult DRG neurons (adult DRG neurons) [%]	growth cone phenotype (expanded region of disorganized microtubules) [1]
C[S+]([O-])c1ccc(-c2nc(-c3ccncc3)c(-c3ccc(F)cc3)[nH]2)cc1 (centres unmarked) [SB203580]	10	
CC(=O)O[C@H]1C(=O)[C@@]2(C)[C@H]([C@H](OC(=O)c3ccccc3)[C@]3(O)C[C@H](OC(=O)[C@H](O)[C@@H](NC(=O)c4ccccc4)c4ccccc4)C(C)=C1C3(C)C)[C@]1(OC(C)=O)CO[C@@H]1C[C@@H]2O [Taxol]		rescued
